Data: patent publication US20220274911A1, “ARYLPROPIONIC ACID DERIVATIVE, PHARMACEUTICAL COMPOSITION AND PREPARATION METHOD AND APPLICATION THEREOF” (NANJING HERON PHARMACEUTICAL SCIENCE AND TECHNOLOGY CO., …, priority 2020, published 2022)

How the values were obtained:
[1] = Metabolism of the compound in human plasma (hydrolysis to the active metabolite); format: in vitro ADME; details: in vitro human plasma; for Remaining Amount of the Prodrug Compound (%): 37° C., 200 rpm, time point of the tabulated value not stated (samples at 0, 15, 30, 60 and 120 min)
Method: (1) 40 mM pure acetonitrile stock solutions of Compound 1, Compound 7 and Compound a were prepared;
(2) the stock solution (25 μL) of Compound a was mixed with 1 mL of human plasma and vortexed for 30 s, a sample (200 μL) was added to 800 μL of acetonitrile to precipitate proteins and vortexed for 1 min, and then the reaction was stopped as a control of an active metabolite of loxoprofen; and 40 mM stock solutions of Compound 1 and Compound 7 were diluted 200 times as prodrug controls;
(4) the pure acetonitrile stock solution (100 μL) of each of Compound 1 and Compound 7 was mixed with 4 mL of human plasma, vortexed for 30 s, and oscillated at 200 rpm in an oscillating water bath heater with a constant temperature of 37° C.;
(5) samples (200 μL) were taken at different time points (0, 15, 30, 60 and 120 min) with three samples at each time point, added with 800 μL of acetonitrile to precipitate proteins and vortexed for 1 min, and then the reaction was stopped; and a blank plasma control was obtained in the same manner;
(6) the samples were centrifuged at 12000 rpm for 10 min at 4° C., the supernatant was taken and injected at a volume of 30 μL (through a filter membrane), and changes of a peak area were recorded;
(7) hydrolysis rates of Compound 1 and Compound 7 were observed and analyzed.

[2] = Solubility of the active metabolite of loxoprofen; format: physicochemical
[3] = Physicochemical stability of the active metabolite of loxoprofen; details: high temperature, high humidity, cold white fluorescent lamp and ultraviolet lamp

| Remaining Amount of the Prodrug Compound (%) [1] | solubility ([2]; in a slightly alkaline aqueous solution) | solubility ([2]; in pure water) | physicochemical stability [3] | Structure (SMILES) | transformation into the active metabolite [1] | metabolic rate ([1]; compared with Compound 1) |
| --- | --- | --- | --- | --- | --- | --- |
| 21.41% ± 0.49% |  |  |  | CC(=O)OC(C)OC(=O)[C@@H](C)c1ccc(C[C@H]2CCC[C@@H]2O)cc1 (some centres unmarked) [Compound 7] | rapidly transformed into the active metabolite | slightly faster than that of Compound 1 without a significant difference |
|  | soluble | low solubility | poor physicochemical stability | C[C@H](C(=O)O)c1ccc(C[C@H]2CCC[C@@H]2O)cc1 [Compound a, (S)-2-(4-(((1R, 2S)-2-hydroxycyclopentyl)methyl)phenyl)propionic acid] |  |  |
| 35.41% ± 1.83% |  |  |  | CCOC(=O)OC(C)OC(=O)[C@@H](C)c1ccc(C[C@H]2CCC[C@@H]2O)cc1 (some centres unmarked) [Compound 1] | rapidly transformed into the active metabolite |  |
